Measured values reported in patent publication US20180110754A1, “CENICRIVIROC FOR THE TREATMENT OF FIBROSIS” (Tobira Therapeutics, Inc., priority 2015, published 2018).

Tests used:
[1] = system: HIV-1; assay: Study 202 Phase 2b: virologic response (HIV-1 RNA <50 copies/mL, FDA Snapshot); type: in vivo, human; conditions: EFV + FTC/TDF
Source text: Subjects with a history of HIV-2, hepatitis B and/or C, cirrhosis of the liver or any known active or chronic active liver disease were excluded from the study.
The primary efficacy endpoint was virologic response at Week 24, defined as HIV-1 RNA<50 copies/mL using the FDA Snapshot Algorithm.

[2] = system: APRI and FIB-4 scores; assay: Study 202 post-hoc APRI and FIB-4 fibrosis index scores; type: in vivo, human
Description: APRI and FIB-4 scores were calculated. Change in score category from baseline (BL) to Weeks 24 and 48 was assessed in patients with non-missing data. Correlations between changes from BL in APRI and FIB-4 scores, and MCP-1 (CCR2 ligand) and sCD14 (inflammatory biomarker) levels were evaluated.

[3] = Study 202: ECG abnormalities and vital signs; type: in vivo, human; conditions: All CVC (N = 115); EFV (N = 28), through Week 48
[4] = Study 202: treatment-emergent laboratory abnormalities (DAIDS grades; CPK, ALT, AST, bilirubin); type: in vivo; conditions: All CVC (N = 115), EFV (N = 28)
Source text: The number of subjects with graded treatment-emergent laboratory abnormalities in selected liver parameters of interest is shown in Table 34. No Grade 4 ALT or AST elevations were observed. Except for one Grade 3 AST elevation, all ALT and AST elevations were Grade 1 or Grade 2. […] All abnormalities in bilirubin were Grade 1 or Grade 2. […]

O=C1Nc2ccc(Cl)cc2[C@@](C#CC2CC2)(C(F)(F)F)O1 [EFV, efavirenz, reference compound]
Virologic success (HIV-1 RNA <50 copies/mL) ([1]; Week 24): 71%
Virologic success (HIV-1 RNA <50 copies/mL) ([1]; Week 48): 50%
Patients in APRI category 0.5-1.5 ([2]; Baseline): 4%
Patients in FIB-4 category <1.45 ([2]; Baseline): 100%
Patients in APRI category <0.5 ([2]; Baseline, CVC pooled 100/200 mg or EFV): 96%
Patients in APRI category <0.5 ([2]; Week 24): 100%
Patients in FIB-4 category <1.45 ([2]; Week 24): 100%
Patients with APRI decreased 1 category from baseline ([2]; Week 24): 5%
Patients in APRI category <0.5 ([2]; Week 48): 100%
Patients in FIB-4 category 1.45-3.25 ([2]; Week 48): 6%
Patients in FIB-4 category <1.45 ([2]; Week 48): 94%
Patients with APRI decreased 1 category from baseline ([2]; Week 48): 6%
HR Abnormally high, n subjects [3]: 0
HR Abnormally low, n subjects [3]: 0
PR Abnormally high, n subjects [3]: 1
QRS Abnormally high, n subjects [3]: 0
QRS Abnormally low, n subjects [3]: 0
QTcB interval Borderline (450-480 ms), n subjects [3]: 3
QTcB interval Increase by >30-60 ms, n subjects [3]: 4
QTcB interval Increase by >60 ms, n subjects [3]: 0
QTcB interval Pathologically prolonged, n subjects [3]: 0
QTcB interval Prolonged, n subjects [3]: 0
QTcF interval Borderline (450-480 ms), n subjects [3]: 0
QTcF interval Increase by >30-60 ms, n subjects [3]: 4
QTcF interval Increase by >60 ms, n subjects [3]: 0
QTcF interval Pathologically prolonged, n subjects [3]: 0
QTcF interval Prolonged, n subjects [3]: 0
Any graded (Grade 1-4) treatment-emergent laboratory abnormality, n subjects [4]: 25
Laboratory abnormality, worst Grade 1, n subjects [4]: 13
Laboratory abnormality, worst Grade 2, n subjects [4]: 8
Laboratory abnormality, worst Grade 3 (Any Grade 3 abnormality), n subjects [4]: 3
Laboratory abnormality, worst Grade 4 (Any Grade 4 abnormality), n subjects [4]: 1
ALT, worst Grade 1, n subjects ([4]; through Week 48): 2
ALT, worst Grade 2, n subjects ([4]; through Week 48): 0
ALT, worst Grade 3, n subjects ([4]; through Week 48): 0
ALT, worst Grade 4, n subjects ([4]; through Week 48): 0
AST, worst Grade 1, n subjects ([4]; through Week 48): 3
AST, worst Grade 2, n subjects ([4]; through Week 48): 0
AST, worst Grade 3, n subjects ([4]; through Week 48): 0
AST, worst Grade 4, n subjects ([4]; through Week 48): 0
Alanine aminotransferase (ALT) abnormality, any grade, n subjects ([4]; through Week 48): 2
Any Grade 3 or Grade 4 laboratory abnormality, n subjects ([4]; through Week 48): 4
Aspartate aminotransferase (AST) abnormality, any grade, n subjects ([4]; through Week 48): 3
Aspartate aminotransferase (AST) increased (Grade 3 or 4), n subjects ([4]; through Week 48): 0
Bilirubin abnormality, any grade, n subjects ([4]; through Week 48): 1
Bilirubin, worst Grade 1, n subjects ([4]; through Week 48): 1
Bilirubin, worst Grade 2, n subjects ([4]; through Week 48): 0
Bilirubin, worst Grade 3, n subjects ([4]; through Week 48): 0
Bilirubin, worst Grade 4, n subjects ([4]; through Week 48): 0
CPK increased, worst Grade 3, n subjects ([4]; through Week 48): 2
CPK increased, worst Grade 4, n subjects ([4]; through Week 48): 0
Creatine phosphokinase (CPK) increased (Grade 3 or 4), n subjects ([4]; through Week 48): 2
Fibrinogen decreased (Grade 3 or 4), n subjects ([4]; through Week 48): 0
Fibrinogen decreased, worst Grade 3, n subjects ([4]; through Week 48): 0
Fibrinogen decreased, worst Grade 4, n subjects ([4]; through Week 48): 0
Hemoglobin decreased (Grade 3 or 4), n subjects ([4]; through Week 48): 0
Hemoglobin decreased, worst Grade 3, n subjects ([4]; through Week 48): 0
Hemoglobin decreased, worst Grade 4, n subjects ([4]; through Week 48): 0
Neutrophils decreased (Grade 3 or 4), n subjects ([4]; through Week 48): 1
Neutrophils decreased, worst Grade 3, n subjects ([4]; through Week 48): 0
Neutrophils decreased, worst Grade 4, n subjects ([4]; through Week 48): 1
Phosphate decreased (Grade 3 or 4), n subjects ([4]; through Week 48): 1
Phosphate decreased, worst Grade 3, n subjects ([4]; through Week 48): 1
Phosphate decreased, worst Grade 4, n subjects ([4]; through Week 48): 0
Prothrombin time/INR increased, worst Grade 3, n subjects ([4]; through Week 48): 0
Prothrombin time/INR increased, worst Grade 4, n subjects ([4]; through Week 48): 0
Prothrombin time/international normalized ratio increased (Grade 3 or 4), n subjects ([4]; through Week 48): 0
